# pIC50: −log10 of the molar value.
# What was measured:
# [1] = test system: +SA mammary epithelial cells; test: Antiproliferative MTT assay on +SA mammary epithelial cells; type: cell-based, mouse; conditions: malignant mice +SA mammary cells, 24 hour treatment, MTT
# From the text: +SA mammary epithelial cell lines were serially passaged at subconfluent cell density. The +SA cell line was derived from an adenocarcinoma that developed spontaneously in a BALB/c female mouse. That cell line is discussed in more detail in Anderson, L. W., Danielson, K. G., Hosick, H. L. Eur. J. Cancer Clin. Oncol. 1981, 17, 1001-1008, Danielson, K G., Anderson, L. W., Hosick, H. L. Cancer Res. 1980, 40, 1812-1819.31, and Anderson, L. W., Danielson, K. G., Hosick, H. L. In Vitro. 1979, 15, 841-843. Cell culture conditions were similar to those described in detail in Shah, S. J., Gapor, A., Sylvester, P. W. Nutr. Cancer. 2003, 45, 236-246, Shah, S. J., Sylvester, P. W. Biochem. Cell. Biol. 2005, 83, 86-95, Wali, V. B., Sylvester, P. W. Lipids, 2007, 42, 1113-1123, and Wali, V. B., Bachawal, S. V., Sylvester, P. W. Exp. Biol. Med. (Maywood) 2009, 234, 639-650. Briefly, +SA cells were maintained in serum-free defined medium consisting of Dulbecco's modified Eagle's medium (DMEM)/F12 containing 5 mg/ml bovine serum albumin (BSA), […], 100 U/ml soybean trypsin inhibitor, 100 U/ml penicillin, 0.1 mg/ml streptomycin, […], and 10 ng/ml epidermal growth factor. For subculturing, cells were rinsed twice with sterile Ca^2+ and Mg^2+-free phosphate buffered saline (PBS) and incubated in 0.05% trypsin containing 0.025% EDTA in PBS for 5 minutes at 37° C. The released cells were centrifuged, resuspended in serum-free defined media and counted using a hemocytometer. A stock solution of the Compounds was prepared in DMSO. Once dissolved, this solution was added to a small volume of sterile 10% BSA in water and incubated overnight at 37° C. This solution conjugated to BSA was used to prepare various concentrations (0-40 μM) of tocotrienol analogs. DMSO was added to all treatment media such that the final DMSO concentration was the same in all treatment groups within a given experiment and was always less than 0.1%. For cytotoxicity studies, cells were seeded at a density of 5×10^4 cells/well (6 wells/group) in 24-well culture plates and allowed to grow in serum-free control defined media. After a 3 day incubation period (approximately 70% confluency), cells were divided equally into various treatment groups and exposed to their respective treatments for a 24 hour incubation period. Following the 24 hour treatment period, cell viability was measured using the MTT assay. All materials were purchased from Sigma Chemical Company (St. Louis, Mo.) unless otherwise stated.
# +SA mammary epithelial cell viable number was determined by the 3-(4,5-dimethylthiazol-2-yl)-2,5-diphenyl tetrazolium bromide (MTT) colorimetric assay. On the day of assay, treatment medium was replaced with fresh growth medium containing 0.42 mg/ml MTT, and the cells in 24-well plates were incubated at 37° C. for 4 hours. Afterward, the medium was removed, and the MTT crystals were dissolved in isopropyl alcohol (1 ml/well). The optical density of each sample was read at 570 nm on a microplate reader (SpectraCount, Packard BioScience Company), against a blank prepared from cell-free cultures. The number of cells/well was calculated against a standard curve prepared by plating various concentrations of cells, as determined by hemocytometer, at the start of each experiment.
# Differences among the various treatment groups in +SA cell cytotoxic studies were determined by analysis of variance (ANOVA) followed by Dunnett's t-test. The difference of P<0.05 was considered to be statistically significant as compared with vehicle-treated controls. Linear regression analysis of treatment effects on viable cell number in growth and cytotoxicity studies was used to determine the 50% growth inhibition concentration (IC50) for individual treatments.
# [2] = Water solubility in phosphate buffer; type: physicochemical; conditions: phosphate buffer pH 7.4, 25° C.
# Experimental: About 5.6 mg of each of α-tocotrienol and Compound 6 were added to 3 mL of phosphate buffer (pH 7.4) in amber vials. Tested solutions were maintained shaking under at 25° C. for 24 h in a constant-temperature water bath. Each solution was then centrifuged at 5,000 rpm for 10 min before collecting samples from the clear supernatant at 0, 1, 2, 4, 6, and 24 h. Each compound concentration in the aspirates was determined by HPLC. […] The solubility of α-tocotrienol maleate (Compound 6) was nearly 1000 fold that of its parent α-tocotrienol.
# A Shimadzu HPLC system (Columbia, Md.) was used for quantification of α-tocotrienol and Compound 6. This system is composed of SIL 20-AHT autosampler, SPD-20A UV/VIS detector, and LC-20AB pump connected to a Dgu-20A3 degasser. Data acquisition was achieved by LC Solution software version 1.22 SP1 Shimadzu. The following chromatographic conditions were used: […] (250×4.6 mm id; Phenomenex, Torrance, Calif.), flow rate was adjusted to 1.0 mL/min, and λ was set at 295 nm. For α-tocotrienol solubility and stability studies, an isocratic elution with MeOH-EtOH—CH3CN (40:30:30, v/v/v) as mobile phase for 10 min. α-tocotrienol was eluted at 6.7 min. […] Each compound was quantified using its calibration curve for compounds peak area versus its concentration.
# [3] = Stability in phosphate buffer; type: physicochemical; conditions: 24 h, 500 μg/mL, pH 7.4
# Experimental: The stability of each of α-tocotrienol and Compound 6 was studied at 37° C. in phosphate buffer (pH 7.4). In amber vials, 500 μg/mL of each compound were dissolved in the buffer and the solution was incubated at 37° C. At interval times (0, 0.5, 1, 2, 4, 6, and 24 h), 50 μL it samples were collected and equal volumes of methanol were added to each sample followed by HPLC analysis.
# (§1) A Shimadzu HPLC system (Columbia, Md.) was used for quantification of α-tocotrienol and Compound 6. This system is composed of SIL 20-AHT autosampler, SPD-20A UV/VIS detector, and LC-20AB pump connected to a Dgu-20A3 degasser. Data acquisition was achieved by LC Solution software version 1.22 SP1 Shimadzu. The following chromatographic conditions were used: […] (250×4.6 mm id; Phenomenex, Torrance, Calif.), flow rate was adjusted to 1.0 mL/min, and λ was set at 295 nm. For α-tocotrienol solubility and stability studies, an isocratic elution with MeOH-EtOH—CH3CN (40:30:30, v/v/v) as mobile phase for 10 min. α-tocotrienol was eluted at 6.7 min. For the simultaneous separation of α-tocotrienol and Compound 6 the following gradient elution was also used starting with H2O— MeOH—N(Et)3 (10:90:0.05, v/v/v) for 5 min, followed by isocratic MeOH—N(Et)3 (100:0.05, v/v) for another 10 min. The retention times were 4 and 14.1 for Compound 6 and α-tocotrienol, respectively. Standard curves for α-tocotrienol and Compound 6 in MeOH were prepared in the range of 0.4-50 μg/mL and 1-1000 μg/mL, respectively. Each compound was quantified using its calibration curve for compounds peak area versus its concentration.
# Stability in rat plasma = type: in vitro ADME; conditions: 37° C.
# Experimental: The stability of each of α-tocotrienol and Compound 6 was studied at 37° C. in rat plasma. In amber vials, 50 μg/mL of each Compound were dissolved in the plasma. The solution was incubated at 37° C., and at interval times (0, 0.5, 1, 2, 4, 6, and 24 h), 50 μL samples were taken and mixed with 100 μL of methanol followed by centrifugation at 14,000 rpm for 10 min. Each supernatant was analyzed by HPLC. In rat plasma, Compound 6 concentration was 100% stable over the first 3 h. Its concentration then started to decrease at the […] to become 81% and 77% of the initial concentration, respectively. After 24 hours, only 43% of the initial concentration of Compound 6 was detectable. The slow rate of hydrolysis of Compound 6 compared to α-tocotrienol may bode well for expected enhanced metabolic stability.
# as §1
smiles,measurement,setting,value
"CC(C)=CCC/C(C)=C/CC/C(C)=C/CC[C@]1(C)CCc2c(C)c(OC(=O)/C=C\C(=O)O)c(C)c(C)c2O1 [Compound 6, (Z)-4-oxo-4-((R)-2,5,7,8-tetramethyl-2-((3E,7E)-4,8,12-trimethyltrideca-3,7,11-trienyl)chroman-6-yloxy)but-2-enoic acid]",pIC50,"[1]; Mus musculus, Epithelial cell, 24 h",6.29
same,pIC50,[1],6.28
same,solubility relative to parent α-tocotrienol,[2],~1000 fold
same,chemical stability relative to the zero time concentration,[3],100%
same,% of the initial concentration in rat plasma,Stability in rat plasma; 4th hour,81%
same,% of the initial concentration in rat plasma,Stability in rat plasma; 5th hour,77%
same,% of the initial concentration in rat plasma,Stability in rat plasma; after 24 hours,43%
same,concentration stable in rat plasma,Stability in rat plasma; over the first 3 h,100%

# Source: patent publication US8969303B2, “Tocotrienol esters” (First Tech International Limited, priority 2010, dated 2015)
